Data published in patent US9249129B2, “Morpholino substituted urea derivatives as mTOR inhibitors” (CELLZOME LIMITED, priority 2010, dated 2016).

Legend:
Assay in all cases: kinobeads assay with mass spectrometry detection of kinases (kinase selectivity profile)
Format in all cases: binding
kinases (kinome) [1] = biological target: T1, kinases (kinome) (Homo sapiens, UniProt Q99640); details: MYT1 (Other), IPI00909627
T1 construct: determined in kinobeads assays with mass spectrometry detection of kinases as described previously; endogenous in cells; host or cells: cell lysate
T1 sequence (Q99640 1-499): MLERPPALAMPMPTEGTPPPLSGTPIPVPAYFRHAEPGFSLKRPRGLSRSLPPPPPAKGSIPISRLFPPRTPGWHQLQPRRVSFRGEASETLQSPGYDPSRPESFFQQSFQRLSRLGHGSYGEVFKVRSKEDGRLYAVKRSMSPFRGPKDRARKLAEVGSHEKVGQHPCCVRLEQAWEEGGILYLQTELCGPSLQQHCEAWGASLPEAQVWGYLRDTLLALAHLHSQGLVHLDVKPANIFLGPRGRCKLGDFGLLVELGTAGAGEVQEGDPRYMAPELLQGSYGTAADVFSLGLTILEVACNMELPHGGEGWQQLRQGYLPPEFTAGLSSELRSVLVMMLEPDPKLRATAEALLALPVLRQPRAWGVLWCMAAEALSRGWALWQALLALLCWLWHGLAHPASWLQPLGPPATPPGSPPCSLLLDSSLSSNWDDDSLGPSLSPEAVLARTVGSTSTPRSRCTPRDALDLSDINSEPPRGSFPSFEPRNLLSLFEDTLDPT
Text: (§1) The protein kinase complement of the human genome (the kinome) was described previously (Manning et al., 2002. Science 298(5600):1912-1934). Sequence accession numbers are defined by the International Protein Index (IPI) (Kersey et al., 2004. Proteomics 4(7):1985-1988).

kinases (kinome) [2] = biological target: T2, kinases (kinome) (Homo sapiens, UniProt Q00535); details: CDK5 (CMGC), IPI00023530
T2 construct: determined in kinobeads assays with mass spectrometry detection of kinases as described previously; endogenous in cells; host or cells: cell lysate
Text: as §1

kinases (kinome) [3] = biological target: T3, kinases (kinome) (Homo sapiens, UniProt Q8IU85); details: CaMK1d (CAMK), IPI00170508
T3 construct: determined in kinobeads assays with mass spectrometry detection of kinases as described previously; endogenous in cells; host or cells: cell lysate
Text: as §1

kinases (kinome) [4] = biological target: T4, kinases (kinome) (Homo sapiens, UniProt P06239); details: LCK (TK), IPI00515097
T4 construct: determined in kinobeads assays with mass spectrometry detection of kinases as described previously; endogenous in cells; host or cells: cell lysate
Text: as §1

kinases (kinome) [5] = biological target: T5, kinases (kinome) (Homo sapiens, UniProt Q9UHD2); details: TBK1 (Other), IPI00293613
T5 construct: determined in kinobeads assays with mass spectrometry detection of kinases as described previously; endogenous in cells; host or cells: cell lysate
T5 sequence (Q9UHD2 1-729): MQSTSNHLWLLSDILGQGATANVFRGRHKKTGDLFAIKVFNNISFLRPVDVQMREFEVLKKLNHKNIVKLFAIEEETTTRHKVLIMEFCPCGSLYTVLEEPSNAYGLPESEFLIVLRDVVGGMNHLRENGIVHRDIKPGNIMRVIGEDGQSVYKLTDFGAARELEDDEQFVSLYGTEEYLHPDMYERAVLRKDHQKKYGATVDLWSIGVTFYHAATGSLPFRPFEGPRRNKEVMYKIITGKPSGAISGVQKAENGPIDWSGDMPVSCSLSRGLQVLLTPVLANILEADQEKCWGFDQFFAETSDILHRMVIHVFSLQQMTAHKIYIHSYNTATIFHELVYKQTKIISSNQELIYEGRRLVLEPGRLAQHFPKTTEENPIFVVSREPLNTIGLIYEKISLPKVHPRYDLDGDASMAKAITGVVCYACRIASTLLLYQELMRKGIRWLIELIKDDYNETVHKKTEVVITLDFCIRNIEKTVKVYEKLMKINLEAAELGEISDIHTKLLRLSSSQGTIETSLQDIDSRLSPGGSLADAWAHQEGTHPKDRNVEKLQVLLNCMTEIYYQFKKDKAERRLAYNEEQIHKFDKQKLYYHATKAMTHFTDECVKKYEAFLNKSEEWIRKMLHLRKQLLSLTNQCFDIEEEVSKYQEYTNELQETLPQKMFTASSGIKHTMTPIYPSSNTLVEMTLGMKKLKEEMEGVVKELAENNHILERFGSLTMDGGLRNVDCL
Text: as §1

kinases (kinome) [6] = biological target: T6, kinases (kinome) (Homo sapiens, UniProt P50613); details: CDK7 (CMGC), IPI00000685
T6 construct: determined in kinobeads assays with mass spectrometry detection of kinases as described previously; endogenous in cells; host or cells: cell lysate
Text: as §1

kinases (kinome) [7] = biological target: T7, kinases (kinome) (Homo sapiens, UniProt P51451); details: BLK (TK), IPI00554756
T7 construct: determined in kinobeads assays with mass spectrometry detection of kinases as described previously; endogenous in cells; host or cells: cell lysate
Text: as §1

kinases (kinome) [8] = biological target: T8, kinases (kinome) (Homo sapiens, UniProt P42336); details: PIK3Ca (Lipid Kinase), IPI00031386
T8 construct: determined in kinobeads assays with mass spectrometry detection of kinases as described previously; endogenous in cells; host or cells: cell lysate
Text: as §1

kinases (kinome) [9] = biological target: T9, kinases (kinome) (Homo sapiens, UniProt O15530); details: PDK1 (AGC), IPI00002538
T9 construct: determined in kinobeads assays with mass spectrometry detection of kinases as described previously; endogenous in cells; host or cells: cell lysate
T9 sequence (O15530 1-556): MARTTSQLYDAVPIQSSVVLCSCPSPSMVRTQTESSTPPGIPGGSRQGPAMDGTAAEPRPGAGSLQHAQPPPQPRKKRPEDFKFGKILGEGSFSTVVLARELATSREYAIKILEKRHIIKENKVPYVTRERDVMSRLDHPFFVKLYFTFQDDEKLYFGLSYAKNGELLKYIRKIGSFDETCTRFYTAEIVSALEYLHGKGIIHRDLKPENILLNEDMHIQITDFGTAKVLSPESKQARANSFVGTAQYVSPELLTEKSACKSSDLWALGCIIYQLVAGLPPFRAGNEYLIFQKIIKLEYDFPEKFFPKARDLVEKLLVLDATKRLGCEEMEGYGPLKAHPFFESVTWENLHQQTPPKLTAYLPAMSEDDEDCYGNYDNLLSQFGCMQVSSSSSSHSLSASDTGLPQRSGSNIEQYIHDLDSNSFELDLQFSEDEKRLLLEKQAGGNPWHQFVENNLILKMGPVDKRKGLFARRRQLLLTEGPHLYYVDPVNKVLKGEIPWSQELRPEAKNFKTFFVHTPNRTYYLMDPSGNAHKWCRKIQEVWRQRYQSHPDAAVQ
Text: as §1

kinases (kinome) [10] = biological target: T10, kinases (kinome) (Homo sapiens, UniProt P49841); details: GSK3B (CMGC), IPI00216190
T10 construct: determined in kinobeads assays with mass spectrometry detection of kinases as described previously; endogenous in cells; host or cells: cell lysate
Text: as §1

kinases (kinome) [11] = biological target: T11, kinases (kinome) (Homo sapiens, UniProt Q9Y6R4); details: MAP3K4 (STE), IPI00386260
T11 construct: determined in kinobeads assays with mass spectrometry detection of kinases as described previously; endogenous in cells; host or cells: cell lysate
Text: as §1

Measured: IC50

T2 sequence (Q00535 whole entry): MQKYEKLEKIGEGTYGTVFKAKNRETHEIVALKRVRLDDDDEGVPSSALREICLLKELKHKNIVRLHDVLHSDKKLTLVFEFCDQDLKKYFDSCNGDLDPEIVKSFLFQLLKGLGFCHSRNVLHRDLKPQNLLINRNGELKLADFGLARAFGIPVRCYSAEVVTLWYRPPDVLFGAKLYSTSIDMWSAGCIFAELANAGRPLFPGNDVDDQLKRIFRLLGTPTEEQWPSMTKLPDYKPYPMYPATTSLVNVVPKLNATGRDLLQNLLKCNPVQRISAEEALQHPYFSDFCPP
T3 sequence (Q8IU85 whole entry): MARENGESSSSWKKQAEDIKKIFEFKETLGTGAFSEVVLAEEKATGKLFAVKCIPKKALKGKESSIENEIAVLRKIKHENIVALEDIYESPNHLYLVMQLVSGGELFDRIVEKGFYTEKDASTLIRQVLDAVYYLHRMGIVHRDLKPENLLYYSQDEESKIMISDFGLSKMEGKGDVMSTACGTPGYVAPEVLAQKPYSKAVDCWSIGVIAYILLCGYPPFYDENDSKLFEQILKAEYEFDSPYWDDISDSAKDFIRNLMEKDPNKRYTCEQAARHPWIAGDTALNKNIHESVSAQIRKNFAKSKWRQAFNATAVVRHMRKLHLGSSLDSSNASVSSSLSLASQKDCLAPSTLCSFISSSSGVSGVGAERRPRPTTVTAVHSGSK
T10 sequence (P49841 whole entry): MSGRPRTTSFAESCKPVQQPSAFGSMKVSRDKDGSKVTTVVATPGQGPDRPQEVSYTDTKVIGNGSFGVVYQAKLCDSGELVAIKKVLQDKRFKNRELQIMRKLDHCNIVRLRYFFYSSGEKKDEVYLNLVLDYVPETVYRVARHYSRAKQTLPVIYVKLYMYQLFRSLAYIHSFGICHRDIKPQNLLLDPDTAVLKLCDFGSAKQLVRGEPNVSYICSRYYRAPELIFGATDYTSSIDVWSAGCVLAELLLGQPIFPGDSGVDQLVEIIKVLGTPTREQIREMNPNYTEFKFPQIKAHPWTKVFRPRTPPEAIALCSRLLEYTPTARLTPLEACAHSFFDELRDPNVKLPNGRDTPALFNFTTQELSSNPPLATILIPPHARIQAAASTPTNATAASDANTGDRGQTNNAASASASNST
T7 sequence (P51451 whole entry): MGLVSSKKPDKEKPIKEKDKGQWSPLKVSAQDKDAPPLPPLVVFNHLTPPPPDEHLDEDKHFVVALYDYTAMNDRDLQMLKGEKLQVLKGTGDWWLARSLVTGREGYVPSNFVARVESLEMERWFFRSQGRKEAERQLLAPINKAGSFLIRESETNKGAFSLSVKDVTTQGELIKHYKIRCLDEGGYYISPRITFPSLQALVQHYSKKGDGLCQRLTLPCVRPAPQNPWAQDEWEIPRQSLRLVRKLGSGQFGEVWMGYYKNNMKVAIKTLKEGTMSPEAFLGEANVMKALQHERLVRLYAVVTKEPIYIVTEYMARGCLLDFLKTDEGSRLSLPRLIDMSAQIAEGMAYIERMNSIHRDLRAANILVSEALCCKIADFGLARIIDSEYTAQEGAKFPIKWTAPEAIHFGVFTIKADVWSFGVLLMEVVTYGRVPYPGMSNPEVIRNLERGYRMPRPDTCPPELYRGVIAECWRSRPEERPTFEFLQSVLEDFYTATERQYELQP
T8 sequence (P42336 whole entry): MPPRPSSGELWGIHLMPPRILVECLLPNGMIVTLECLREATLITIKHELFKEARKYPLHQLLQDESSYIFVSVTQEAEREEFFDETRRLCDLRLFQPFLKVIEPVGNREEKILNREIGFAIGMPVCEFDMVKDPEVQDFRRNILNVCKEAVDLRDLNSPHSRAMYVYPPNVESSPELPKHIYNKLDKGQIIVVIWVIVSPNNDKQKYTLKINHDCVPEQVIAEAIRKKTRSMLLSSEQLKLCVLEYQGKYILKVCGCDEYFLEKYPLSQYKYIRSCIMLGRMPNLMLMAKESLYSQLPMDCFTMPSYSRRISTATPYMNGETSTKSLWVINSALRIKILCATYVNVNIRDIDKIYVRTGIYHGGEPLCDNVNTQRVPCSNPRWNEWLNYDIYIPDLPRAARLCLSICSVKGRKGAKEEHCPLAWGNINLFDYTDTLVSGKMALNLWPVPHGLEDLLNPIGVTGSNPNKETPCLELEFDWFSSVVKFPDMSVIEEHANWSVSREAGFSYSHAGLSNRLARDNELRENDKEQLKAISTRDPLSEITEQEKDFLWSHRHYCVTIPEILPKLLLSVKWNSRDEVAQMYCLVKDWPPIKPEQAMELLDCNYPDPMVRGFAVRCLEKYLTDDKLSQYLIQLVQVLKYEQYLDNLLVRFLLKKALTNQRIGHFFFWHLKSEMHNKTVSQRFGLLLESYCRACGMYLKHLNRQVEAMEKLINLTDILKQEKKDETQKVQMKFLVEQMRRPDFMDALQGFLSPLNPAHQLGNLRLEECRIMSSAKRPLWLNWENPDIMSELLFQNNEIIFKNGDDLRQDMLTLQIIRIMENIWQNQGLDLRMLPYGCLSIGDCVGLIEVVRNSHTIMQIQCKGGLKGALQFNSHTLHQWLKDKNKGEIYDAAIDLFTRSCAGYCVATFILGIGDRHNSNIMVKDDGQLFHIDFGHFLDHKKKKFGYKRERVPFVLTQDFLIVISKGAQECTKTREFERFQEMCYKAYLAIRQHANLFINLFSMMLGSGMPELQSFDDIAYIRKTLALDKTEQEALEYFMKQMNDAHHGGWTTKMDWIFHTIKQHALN
T6 sequence (P50613 whole entry): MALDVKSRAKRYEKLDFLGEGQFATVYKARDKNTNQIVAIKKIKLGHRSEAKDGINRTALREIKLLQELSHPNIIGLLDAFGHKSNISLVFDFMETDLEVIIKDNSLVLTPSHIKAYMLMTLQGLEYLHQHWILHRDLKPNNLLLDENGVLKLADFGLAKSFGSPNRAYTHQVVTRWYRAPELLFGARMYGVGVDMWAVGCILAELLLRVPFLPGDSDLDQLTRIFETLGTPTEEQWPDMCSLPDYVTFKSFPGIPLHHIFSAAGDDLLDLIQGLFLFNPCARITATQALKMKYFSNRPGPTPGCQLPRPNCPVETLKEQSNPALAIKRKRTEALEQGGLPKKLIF
T4 sequence (P06239 whole entry): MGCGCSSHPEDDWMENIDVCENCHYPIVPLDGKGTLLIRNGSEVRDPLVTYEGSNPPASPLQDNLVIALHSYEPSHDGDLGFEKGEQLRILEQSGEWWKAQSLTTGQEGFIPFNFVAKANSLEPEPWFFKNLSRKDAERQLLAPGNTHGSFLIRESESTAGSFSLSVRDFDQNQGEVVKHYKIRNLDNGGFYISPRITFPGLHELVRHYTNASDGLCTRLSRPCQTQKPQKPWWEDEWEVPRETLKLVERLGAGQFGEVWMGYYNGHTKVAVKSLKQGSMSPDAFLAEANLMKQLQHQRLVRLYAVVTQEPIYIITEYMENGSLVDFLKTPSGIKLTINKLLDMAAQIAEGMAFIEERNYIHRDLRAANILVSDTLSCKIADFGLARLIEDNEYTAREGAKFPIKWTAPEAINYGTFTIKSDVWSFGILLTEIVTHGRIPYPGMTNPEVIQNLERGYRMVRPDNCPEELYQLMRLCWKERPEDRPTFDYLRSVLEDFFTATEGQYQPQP

C[C@H]1COCCN1c1nc(-c2ccc(NC(=O)NC3CC3)cc2)cc(-c2ccccc2S(C)(=O)=O)n1 [Example 4, (S)-1-cyclopropyl-3-(4-(2-(3-methylmorpholino)-6-(2-(methylsulfonyl)phenyl)pyrimidin-4-yl)phenyl)urea]
> 10 µM: all assays above

C[C@H]1COCCN1c1cc(-c2ccccc2S(C)(=O)=O)nc(-c2ccc(NC(=O)NC3CC3)cc2)n1 [Example 6, (S)-1-cyclopropyl-3-(4-(4-(3-methylmorpholino)-6-(2-(methylsulfonyl)phenyl)pyrimidin-2-yl)phenyl)urea]
> 10 µM: all assays above

CCNC(=O)Nc1ccc(-c2cc(-c3ccccc3C#N)nc(N3CCOC[C@@H]3C)n2)cc1 [Example 8, (S)-1-(4-(6-(2-cyanophenyl)-2-(3-methylmorpholino)pyrimidin-4-yl)phenyl)-3-ethylurea]
not listed: kinases (kinome) [4]
> 10 µM: all other assays above

C[C@H]1COCCN1c1nc(-c2ccc(NC(=O)NC3CC3)cc2)cc(-c2cc(F)ccc2S(C)(=O)=O)n1 [Example 40, (S)-1-cyclopropyl-3-(4-(6-(5-fluoro-2-(methylsulfonyl)phenyl)-2-(3-methylmorpholino)pyrimidin-4-yl)phenyl)urea]
> 10 µM: all assays above

C[C@H]1COCCN1c1cc(-c2ccccn2)nc(-c2ccc(NC(=O)NCCO)cc2)n1 [Example 43, (S)-1-(2-hydroxyethyl)-3-(4-(4-(3-methylmorpholino)-6-(pyridin-2-yl)pyrimidin-2-yl)phenyl)urea]
> 10 µM: all assays above

C[C@H]1COCCN1c1nc(-c2ccc(NC(=O)NC3CC3)cc2)cc(-c2cccnc2S(C)(=O)=O)n1 [Example 46, (S)-1-cyclopropyl-3-(4-(2-(3-methylmorpholino)-6-(2-(methylsulfonyl)pyridin-3-yl)pyrimidin-4-yl)phenyl)urea]
> 10 µM: all assays above

C[C@H]1COCCN1c1nc(-c2ccc(NC(=O)N[C@H]3CCC[C@@H]3O)cc2)cc(-c2cc(F)ccc2S(C)(=O)=O)n1 [Example 76, 1-(4-(6-(5-fluoro-2-(methylsulfonyl)phenyl)-2-((S)-3-methylmorpholino)pyrimidin-4-yl)phenyl)-3-((1S,2S)-2-hydroxycyclopentyl)urea]
> 10 µM: all assays above
